Assay [1] has as its target human CB1 receptor (hCB1) (Homo sapiens, UniProt P21554). The experiment in a line: cell-based. Format: cell-based. Here is the method:
(§1) The ability of compounds to act as agonists or inverse agonists at human CB2 and CB1 receptors (hCB2, hCB1, respectively) and at the rat CB2 receptor (rCB2) was determined by measuring changes in intracellular cAMP levels. Chinese Hamster Ovary (CHO-K1) cell lines stably expressing hCB2 (Genebank: X74328) or hCB1 (Genebank: X54937) were purchased from Euroscreen (Gosselies, Belgium). The rat CB2 receptor was expressed from genomic DNA (provided by M. Abood, California Pacific Medical Center) in CHO-K1 cells from expression plasmid vector, pcDNA3.1.
(§2) Cell lines were grown in suspension in EX-CELL 302 CHO Serum-free medium (Sigma, cat #14324C) supplemented with 1% Fetal Bovine Serum, glutamine and non-essential amino-acids under 0.4 mg/mL G418 selection.
(§3) Receptor mediated responses were determined by measuring changes in intracellular cAMP using LANCE cAMP detection kit (cat #AD0264, Perkin Elmer, Wellesley, Mass.) based on time-resolved fluorescence resonance energy transfer (TR-FRET). Changes in cAMP were determined in cells pre-incubated with IBMX (isobutyl methylxanthine) and prestimulated with NKH-477 (a water soluble forskolin derivative, cat #1603, Tocris, Ellisville, Mo.) to increase basal cAMP levels as detailed below.
(§4) On the day of the experiment, cells were spun at low speed for 5 min at room temperature. The supernatant was removed and cells were resuspended in stimulation buffer (Hanks Buffered Salt Solution/5 mM HEPES, containing 0.5 mM IBMX (cat #17018, Sigma) and 0.02% BSA (Perkin-Elmer, cat #CR84-100)). Cell clumps were removed by filtering through cell strainer 40 μm (BD Falcon, Discovery Labware, Bedford, Mass.) and diluted to 2×10^5 cells/mL. Antibody supplied with the LANCE cAMP immunoassay kit was then added according to the manufacturer's instructions. An aliquot of cells was taken for un-induced controls. To the remaining cells was added NKH-477 (a water soluble forskolin derivative, Tocris cat #1603) to a final concentration of 2-8 μM. Cells were then incubated for 30 min at room temperature prior to adding to Proxiplates containing test compounds (final DMSO concentration was less than 0.5%) with a Multidrop bulk dispenser, followed by a sixty minute incubation at room temperature. The response was stopped by addition of the detection mix supplied with the LANCE kit. The reagents were allowed to equilibrate for three hours prior to reading on an Envision multi-mode detector (Perkin-Elmer). TR-FRET was measured using a 330-380 nm excitation filter, a 665 nm emission filter, dichroic mirror 380 nm and Z=1 mm. Cyclic AMP concentrations in each well were back-calculated from a cAMP standard curve run concurrently during each assay. Each plate contained 16 wells of forskolin stimulated cells and 16 wells of forskolin plus CP55,940-treated cells. Cells were treated with 1 μM CP55,940 (Tocris cat. #0949). Concentrations of cAMP were expressed as a percent of the difference of these two groups of wells. Concentration-response data including EC50 (the concentration of compound producing 50% of the maximal response) and intrinsic activity (the percent maximal activation compared to full activation by CP55,940) were determined using a four-parameter non-linear regression algorithm (Xlfit equation 251, IDBS).

The target of assay [2] is T1, rat CB2 receptor (rCB2) (Rattus norvegicus, UniProt Q9QZN9).
T1 sequence (Q9QZN9 1-360): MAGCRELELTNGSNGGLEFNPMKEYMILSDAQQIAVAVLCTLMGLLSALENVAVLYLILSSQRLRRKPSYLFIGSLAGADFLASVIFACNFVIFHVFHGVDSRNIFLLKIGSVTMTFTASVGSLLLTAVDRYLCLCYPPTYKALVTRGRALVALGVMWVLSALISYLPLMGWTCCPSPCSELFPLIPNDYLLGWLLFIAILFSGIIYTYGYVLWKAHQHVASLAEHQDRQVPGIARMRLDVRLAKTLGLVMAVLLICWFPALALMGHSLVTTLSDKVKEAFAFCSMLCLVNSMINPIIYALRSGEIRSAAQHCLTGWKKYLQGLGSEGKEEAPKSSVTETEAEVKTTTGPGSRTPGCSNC
The experiment in a line: cell-based. Format: cell-based. Particulars: for +/− RCB2: agonist or inverse agonist at rCB2. Here is the method: as §1, §2, §3, §4

The mark [3] stands for this setting: groups >100 nM-10 μM and >10 μM, cAMP, CHO-K1 hCB1, read-out: EC50 HCB1.

From patent publication US7517874B2 (priority 2007, dated 2009) come the findings set out here.

The term EC50 denotes the concentration needed to bring the measured effect to its halfway point.

Each structure is given as a SMILES string. Where two headings read alike, the source gives them in different places. A value given as a limit tells only on which side of the number the result lay.

human CB1 receptor (hCB1), sequence (P21554 whole entry): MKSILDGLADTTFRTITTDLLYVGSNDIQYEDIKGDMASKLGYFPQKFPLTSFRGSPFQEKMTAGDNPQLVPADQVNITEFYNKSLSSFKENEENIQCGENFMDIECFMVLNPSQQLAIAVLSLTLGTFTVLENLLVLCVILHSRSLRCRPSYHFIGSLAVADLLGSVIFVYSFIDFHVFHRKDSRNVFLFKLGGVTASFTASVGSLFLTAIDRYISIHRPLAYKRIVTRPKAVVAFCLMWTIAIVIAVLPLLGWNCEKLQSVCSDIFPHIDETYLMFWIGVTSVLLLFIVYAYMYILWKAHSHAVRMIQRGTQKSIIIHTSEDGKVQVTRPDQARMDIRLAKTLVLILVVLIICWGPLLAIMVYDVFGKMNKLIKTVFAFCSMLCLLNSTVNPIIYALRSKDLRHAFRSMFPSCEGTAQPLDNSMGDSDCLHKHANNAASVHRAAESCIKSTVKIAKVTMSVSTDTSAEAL

In assay [1], `CNC(=O)[C@@H](NC(=O)c1nc(-c2ccccc2)n2c1CN(C(=O)OC(C)(C)C)CC2)C(C)(C)C` [Compound 1, (S)-tert-butyl 1-(3,3-dimethyl-1-(methylamino)-1-oxobutan-2-ylcarbamoyl)-3-phenyl-5,6-dihydroimidazo[1,5-a]pyrazine-7(8H)-carboxylate] returned an EC50 greater than 10000 nM. Besides, in assay [2], the “+/− RCB2” value is “−”.

The compound `CNC(=O)[C@@H](NC(=O)c1nc(-c2ccccc2)n2c1CNCC2)C(C)(C)C` [Compound 2, (S)-N-(3,3-dimethyl-1-(methylamino)-1-oxobutan-2-yl)-3-phenyl-5,6,7,8-tetrahydroimidazo[1,5-a]pyrazine-1-carboxamide] yielded an EC50 in assay [1] greater than 10000 nM. Besides, the “+/− RCB2” value in assay [2] is “+”.

Compound `CNC(=O)[C@@H](NC(=O)c1nc(-c2cccc(C(F)(F)F)c2)n2c1CNCC2)C(C)(C)C` [Compound 3, (S)-N-(3,3-dimethyl-1-(methylamino)-1-oxobutan-2-yl)-3-(3-(trifluoromethyl)phenyl)-5,6,7,8-tetrahydroimidazo[1,5-a]pyrazine-1-carboxamide] came in with an EC50 in assay [1] greater than 10000 nM. Further, the “+/− RCB2” value in assay [2] was “−”.

Regarding `CNC(=O)[C@@H](NC(=O)c1nc(-c2cccc(F)c2)n2c1CNCC2)C(C)(C)C` [Compound 4, (S)-N-(3,3-dimethyl-1-(methylamino)-1-oxobutan-2-yl)-3-(3-fluorophenyl)-5,6,7,8-tetrahydroimidazo[1,5-a]pyrazine-1-carboxamide], the EC50 in assay [1] is greater than 10000 nM; in assay [2] it was greater than 10 µM.

Take `CNC(=O)[C@@H](NC(=O)c1nc(-c2csc3ccccc23)n2c1CNCC2)C(C)(C)C` [Compound 20, (S)-3-(benzo[b]thiophen-3-yl)-N-(3,3-dimethyl-1-(methylamino)-1-oxobutan-2-yl)-5,6,7,8-tetrahydroimidazo[1,5-a]pyrazine-1-carboxamide]: the EC50 in assay [1] was greater than 10000 nM.

For `CNC(=O)[C@@H](NC(=O)c1nc(-c2ccsc2)n2c1CN(C)CC2)C(C)(C)C` [Compound 73, (S)-N-(3,3-dimethyl-1-(methylamino)-1-oxobutan-2-yl)-7-methyl-3-(thiophen-3-yl)-5,6,7,8-tetrahydroimidazo[1,5-a]pyrazine-1-carboxamide], the EC50 in assay [1] was greater than 10000 nM.

Consider `CNC(=O)[C@@H](NC(=O)c1nc(-c2ccsc2)n2c1CN(CC1CC1)CC2)C(C)(C)C` [Compound 74, (S)-7-(cyclopropylmethyl)-N-(3,3-dimethyl-1-(methylamino)-1-oxobutan-2-yl)-3-(thiophen-3-yl)-5,6,7,8-tetrahydroimidazo[1,5-a]pyrazine-1-carboxamide], for which the EC50 in assay [1] is greater than 10000 nM.

As to `CNC(=O)[C@H](C)NC(=O)c1nc(-c2ccccc2)n2c1CN(C)CC2` [Compound 78, (S)-7-methyl-N-(1-(methylamino)-1-oxopropan-2-yl)-3-phenyl-5,6,7,8-tetrahydroimidazo[1,5-a]pyrazine-1-carboxamide], in assay [1] (setting [3]), the EC50 was greater than 10000 nM.

In assay [1], `CNC(=O)[C@@H](NC(=O)c1nc(-c2cscc2C)n2c1CN(C)CC2)C(C)(C)C` [Compound 81, (S)-N-(3,3-dimethyl-1-(methylamino)-1-oxobutan-2-yl)-7-methyl-3-(4-methylthiophen-3-yl)-5,6,7,8-tetrahydroimidazo[1,5-a]pyrazine-1-carboxamide] displayed an EC50 greater than 10000 nM.

With `CC(C)(CO)CNC(=O)c1nc(-c2ccccc2)n2c1CN(CC1CC1)CC2` [Compound 83, 7-(cyclopropylmethyl)-N-(3-hydroxy-2,2-dimethylpropyl)-3-phenyl-5,6,7,8-tetrahydroimidazo[1,5-a]pyrazine-1-carboxamide], the EC50 in assay [1] (setting [3]) is greater than 10000 nM.

With `CC(C)(C)[C@@H](CO)NC(=O)c1nc(-c2ccccc2)n2c1CN(CC1CC1)CC2` [Compound 84, (S)-7-(cyclopropylmethyl)-N-(1-hydroxy-3,3-dimethylbutan-2-yl)-3-phenyl-5,6,7,8-tetrahydroimidazo[1,5-a]pyrazine-1-carboxamide], the EC50 in assay [1] was greater than 10000 nM.

As for `CNC(=O)[C@@H](NC(=O)c1nc(-c2ccccc2)n2c1CN(S(=O)(=O)c1ccc(C(F)(F)F)cc1)CC2)C(C)(C)C` [Compound 107, (S)-N-(3,3-dimethyl-1-(methylamino)-1-oxobutan-2-yl)-3-phenyl-7-(4-(trifluoromethyl)phenylsulfonyl)-5,6,7,8-tetrahydroimidazo[1,5-a]pyrazine-1-carboxamide], the EC50 in assay [1] was greater than 10000 nM.

With `CNC(=O)[C@@H](NC(=O)c1nc(-c2ccccc2)n2c1CN(S(=O)(=O)c1ccc(C#N)cc1)CC2)C(C)(C)C` [Compound 108, (S)-7-(4-cyanophenylsulfonyl)-N-(3,3-dimethyl-1-(methylamino)-1-oxobutan-2-yl)-3-phenyl-5,6,7,8-tetrahydroimidazo[1,5-a]pyrazine-1-carboxamide], the EC50 in assay [1] was greater than 10000 nM.

Compound `CNC(=O)[C@@H](NC(=O)c1nc(-c2ccsc2)n2c1CN(S(=O)(=O)c1ccc(F)cc1)CC2)C(C)(C)C` [Compound 109, (S)-N-(3,3-dimethyl-1-(methylamino)-1-oxobutan-2-yl)-7-(4-fluorophenylsulfonyl)-3-(thiophen-3-yl)-5,6,7,8-tetrahydroimidazo[1,5-a]pyrazine-1-carboxamide] registered an EC50 in assay [1] greater than 10000 nM.

`CNC(=O)[C@@H](NC(=O)c1nc(Br)n2c1CN(C)CC2)C(C)(C)C` [Compound 203, (S)-3-bromo-N-(3,3-dimethyl-1-(methylamino)-1-oxobutan-2-yl)-7-methyl-5,6,7,8-tetrahydroimidazo[1,5-a]pyrazine-1-carboxamide] registered an EC50 in assay [1] greater than 10000 nM.

Consider `CNC(=O)[C@@H](NC(=O)c1nc(-c2ccccc2)n2c1C[N+](C)(C)CC2)C(C)(C)C` [Compound 311, (S)-1-(3,3-dimethyl-1-(methylamino)-1-oxobutan-2-ylcarbamoyl)-7,7-dimethyl-3-phenyl-5,6,7,8-tetrahydroimidazo[1,5-a]pyrazin-7-ium iodide], for which the EC50 in assay [1] was greater than 10000 nM.

On to `CNC(=O)[C@@H](NC(=O)c1nc(Br)n2c1CN(C)CCC2)C(C)(C)C` [Compound 324, (S)-3-bromo-N-(3,3-dimethyl-1-(methylamino)-1-oxobutan-2-yl)-8-methyl-6,7,8,9-tetrahydro-5H-imidazo[1,5-a][1,4]diazepine-1-carboxamide], for which, in assay [1], the EC50 is greater than 10000 nM.

Consider `CNC(=O)[C@@H](NC(=O)c1nc(C2=CCCCO2)n2c1CN(C)CCC2)C(C)(C)C` [Compound 452, (S)-3-(3,4-dihydro-2H-pyran-6-yl)-N-(3,3-dimethyl-1-(metylamino)-1-oxobutan-2-yl)-8-methyl-6,7,8,9-tetrahydro-5H-imidazo[1,5-a][1,4]diazepine-1-carboxamide], for which the “+/− RCB2” value in assay [2] is given as “+”.

For the compound `CNC(=O)[C@@H](NC(=O)c1nc(C2CCCC2)n2c1CN(C)CCC2)C(C)(C)C` [Compound 497, (S)-3-cyclopentyl-N-(3,3-dimethyl-1-(methylamino)-1-oxobutan-2-yl)-8-methyl-6,7,8,9-tetrahydro-5H-imidazo[1,5-a][1,4]diazepine-1-carboxamide], the “+/− RCB2” value in assay [2] is given as “+”.

In assay [1], `CNC(=O)[C@@H](NC(=O)c1nc(-c2ccc(Cl)cc2F)n2c1CN(C1CCNCC1)CCC2)C(C)(C)C` [Compound 526, (S)-3-(4-chloro-2-fluorophenyl)-N-(3,3-dimethyl-1-(methylamino)-1-oxobutan-2-yl)-8-(piperidin-4-yl)-6,7,8,9-tetrahydro-5H-imidazo[1,5-a][1,4]diazepine-1-carboxamide] showed an EC50 greater than 10000 nM.
